# What was measured:
# [1] = target: T1, Endothelin-converting enzyme 1 (Homo sapiens) (UniProt P42892); assay: (§1) Tested for inhibitory concentration against human Endothelin-converting enzyme 1 at 10 uM
# T1 sequence (whole entry): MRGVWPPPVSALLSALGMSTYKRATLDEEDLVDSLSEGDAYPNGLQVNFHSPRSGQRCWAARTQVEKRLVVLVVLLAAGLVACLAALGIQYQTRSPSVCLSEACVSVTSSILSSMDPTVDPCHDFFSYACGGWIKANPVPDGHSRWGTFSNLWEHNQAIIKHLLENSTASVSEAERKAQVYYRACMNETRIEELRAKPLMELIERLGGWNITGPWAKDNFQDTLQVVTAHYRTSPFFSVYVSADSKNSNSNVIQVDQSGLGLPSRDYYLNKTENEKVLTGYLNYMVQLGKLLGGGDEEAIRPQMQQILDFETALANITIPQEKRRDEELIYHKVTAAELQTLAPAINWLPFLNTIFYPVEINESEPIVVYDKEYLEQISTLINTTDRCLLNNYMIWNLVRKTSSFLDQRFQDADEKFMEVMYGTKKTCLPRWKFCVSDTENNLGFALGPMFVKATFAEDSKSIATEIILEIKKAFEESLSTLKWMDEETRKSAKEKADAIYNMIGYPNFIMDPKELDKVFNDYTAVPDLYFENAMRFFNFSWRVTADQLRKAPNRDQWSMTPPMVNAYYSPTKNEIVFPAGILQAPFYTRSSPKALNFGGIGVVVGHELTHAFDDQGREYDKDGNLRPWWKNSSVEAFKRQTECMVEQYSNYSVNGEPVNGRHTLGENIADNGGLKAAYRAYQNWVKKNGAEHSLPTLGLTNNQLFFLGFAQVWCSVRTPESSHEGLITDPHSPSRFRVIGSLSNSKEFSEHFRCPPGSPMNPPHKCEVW
# [2] = target: T2, Endothelin-converting enzyme 1 (Homo sapiens, UniProt P42892); assay: as §1
# T2 sequence (P42892 whole entry): T1 sequence (whole entry)
Structure (SMILES),inhibition [1] [%],IC50 [2] [µM]
CSc1nnc([C@@H]2C[C@@H](S)CN2S(=O)(=O)c2ccc3ccccc3c2)n1C,43,
CCCSc1nnc([C@@H]2C[C@@H](S)CN2S(=O)(=O)c2ccc3ccccc3c2)n1-c1ccccc1,,0.28
CSc1nnc([C@@H]2C[C@@H](S)CN2S(=O)(=O)c2ccc3ccccc3c2)n1-c1ccccc1,,0.5
CSc1nnc([C@@H]2C[C@@H](S)CN2S(=O)(=O)c2ccc(F)cc2)n1-c1ccccc1,,8.95
CCCc1ccc(S(=O)(=O)N2C[C@H](S)C[C@H]2c2nnc(SC)n2-c2ccccc2)cc1,,1.2
CCCCOC(=O)N1C[C@H](S)C[C@H]1c1nnc(SC)n1-c1ccccc1,,2.7
CSc1nnc([C@@H]2C[C@@H](S)CN2S(C)(=O)=O)n1-c1ccccc1,,15.5
CSc1nnc([C@@H]2C[C@@H](S)CN2S(=O)(=O)c2ccc(Cl)cc2)n1-c1ccccc1,,1.2
CSc1nnc([C@@H]2C[C@@H](S)CN2S(=O)(=O)c2ccc3ccccc3c2)n1-c1c(F)c(F)cc(F)c1F,,0.25
CSc1nnc([C@@H]2C[C@@H](S)CN2S(=O)(=O)c2ccc3ccccc3c2)n1Cc1ccc(F)cc1,,0.15
CSc1nnc([C@@H]2C[C@@H](S)CN2S(=O)(=O)c2ccc3ccccc3c2)n1-c1ccc(F)c(Cl)c1,,1.2
CSc1nnc([C@@H]2C[C@@H](S)CN2S(=O)(=O)N(C)C)n1-c1ccccc1,28,
CSc1nnc([C@@H]2C[C@@H](S)CN2S(=O)(=O)c2ccc(C)cc2)n1-c1ccccc1,,4.4
CC(C)CSc1nnc([C@@H]2C[C@@H](S)CN2S(=O)(=O)c2ccc3ccccc3c2)n1-c1ccccc1,,0.72
O=S(=O)(c1ccc2ccccc2c1)N1C[C@H](S)C[C@H]1c1nnc(SCC2CC2)n1-c1ccccc1,,0.7
CSc1nnc([C@@H]2C[C@@H](S)CN2S(=O)(=O)c2ccc3ccccc3c2)n1-c1ccc(C(F)(F)F)cc1,,0.36
CSc1nnc([C@@H]2C[C@@H](S)CN2S(=O)(=O)c2ccc(C(F)(F)F)cc2)n1-c1ccccc1,,1.3
CSc1nnc([C@@H]2C[C@@H](S)CN2C(=O)Nc2ccc(F)cc2)n1-c1ccccc1,,17.7
